In this experiment the target is T1, GFRα1-RET (Homo sapiens, UniProt P56159).
T1 construct: expressed in transfected cells; host or cells: MG87 murine fibroblasts, stably transfected
T1 sequence (P56159 25-429 limits assumed): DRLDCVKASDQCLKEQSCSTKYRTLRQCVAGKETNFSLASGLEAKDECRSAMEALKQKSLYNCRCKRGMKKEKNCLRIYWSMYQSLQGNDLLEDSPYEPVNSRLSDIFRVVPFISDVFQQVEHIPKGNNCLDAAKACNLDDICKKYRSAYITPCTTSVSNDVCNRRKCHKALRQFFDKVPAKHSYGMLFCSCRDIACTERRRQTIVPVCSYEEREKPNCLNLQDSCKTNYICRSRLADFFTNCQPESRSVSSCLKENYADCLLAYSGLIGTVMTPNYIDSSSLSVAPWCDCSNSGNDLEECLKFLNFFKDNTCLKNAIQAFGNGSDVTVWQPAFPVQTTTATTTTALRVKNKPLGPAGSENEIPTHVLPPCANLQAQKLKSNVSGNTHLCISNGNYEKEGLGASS
In words: Elk1 reporter-gene (luciferase) assay in cells expressing GFRα1-RET. The class given is cell-based. To be noted: MG87 murine fibroblasts stably transfected with PathDetect Elk-1, GFRα1 and RET, 6 concentrations, agonist/activator activity. As to the method:
For ECso determination, a dose-response test was performed using 6 concentrations of each tested compound. Dose-response curves were fitted using the sigmoidal dose-response (variable slope) analysis in GraphPad Prism program (Graph Pad Inc) and ECso of agonist/activator activity was calculated. Dose-response experiments were all performed in duplicate, two times independently.

The source of these data is patent US20260022096A1, “NOVEL SULFONAMIDES AND THEIR USE AS NEUROPROTECTIVE AND/OR NEURORESTORATIVE AGENTS” (GENECODE, priority 2022, published 2026).

Structures are written as SMILES. Some results are limits rather than exact numbers.

As to `Cc1c(Cl)cc(S(=O)(=O)N(C)C(C)(C)C)cc1N1[C@@H]2CC[C@H]1CN(C(=O)c1ccc(F)cc1Cl)C2` [compound 132, N-tert-butyl-3-chloro-5-[(1S,5R)-3-(2-chloro-4-fluoro-benzoyl)-3,8-diazabicyclo[3.2.1]octan-8-yl]-N,4-dimethyl-benzenesulfonamide], the EC50 is < 1000 nM.
`CCCN(C)S(=O)(=O)c1ccc(Cl)c(N2[C@@H]3CC[C@H]2CN(C(=O)c2ccc(F)cc2Cl)C3)c1` [compound 115, 4-chloro-3-[(1S,5R)-3-(2-chloro-4-fluoro-benzoyl)-3,8-diazabicyclo[3.2.1]octan-8-yl]-N-methyl-N-propyl-benzenesulfonamide]: the EC50 was < 1000 nM.
For the molecule `COc1ccc(S(=O)(=O)N2CCC(c3cccc(-n4cccn4)c3)CC2)cc1N1[C@@H]2CC[C@H]1CN(C(=O)c1ccc(F)cc1Cl)C2` [compound 043, (2-chloro-4-fluoro-phenyl)-[(1S,5R)-8-[2-methoxy-5-[[4-(3-pyrazol-1-ylphenyl)-1-piperidyl]sulfonyl]phenyl]-3,8-diazabicyclo[3.2.1]octan-3-yl]methanone], the EC50 was < 1000 nM.
On to `CN(CC1CC1)S(=O)(=O)c1cc(Cl)c(O)c(N2[C@@H]3CC[C@H]2CN(C(=O)c2ccc(F)cc2Cl)C3)c1` [compound 096, 3-chloro-5-[(1S,5R)-3-(2-chloro-4-fluoro-benzoyl)-3,8-diazabicyclo[3.2.1]octan-8-yl]-N-(cyclopropylmethyl)-4-hydroxy-N-methyl-benzenesulfonamide], for which the EC50 is < 1000 nM.
The result for `COc1ccc(S(=O)(=O)N2CCN(c3ccccc3)CC2)cc1N1[C@@H]2CC[C@H]1CN(C(=O)c1cc(F)c(F)cc1Cl)C2` [compound 051] reads < 1000 nM.
Then `CN(C(C)(C)C)S(=O)(=O)c1cc(Cl)c(OCCO)c(N2[C@@H]3CC[C@H]2CN(C(=O)c2ccc(F)cc2Cl)C3)c1` [compound 134], with < 1000 nM; and `COc1ccc(S(=O)(=O)N2CCN(c3ccccc3)CC2)cc1N1[C@@H]2CC[C@H]1CN(C(=O)c1ccc(F)cc1Cl)C2` [compound 012, (2-chloro-4-fluoro-phenyl)-[(1S,5R)-8-[2-methoxy-5-(4-phenylpiperazin-1-yl)sulfonyl-phenyl]-3,8-diazabicyclo[3.2.1]octan-3-yl]methanone], with < 1000 nM.
Consider `CCCN(C)S(=O)(=O)c1ccc(C)c(N2[C@@H]3CC[C@H]2CN(C(=O)c2ccc(F)cc2Cl)C3)c1` [compound 068, 3-[(1S,5R)-3-(2-chloro-4-fluoro-benzoyl)-3,8-diazabicyclo[3.2.1]octan-8-yl]-N,4-dimethyl-N-propyl-benzenesulfonamide], for which the EC50 was < 1000 nM.
Then `O=C(O)c1ccc(S(=O)(=O)N2CCC(c3ccccc3)CC2)cc1N1[C@@H]2CC[C@H]1CN(C(=O)c1ccc(F)cc1Cl)C2` [compound 071, 2-[(1S,5R)-3-(2-chloro-4-fluoro-benzoyl)-3,8-diazabicyclo[3.2.1]octan-8-yl]-4-[(4-phenyl-1-piperidyl)sulfonyl]benzoic acid], with < 1000 nM; and `Cc1ccc(S(=O)(=O)N2CCC(c3ccccc3)CC2)cc1N1[C@@H]2CC[C@H]1CN(C(=O)c1ccc(F)cc1Cl)C2` [compound 067, (2-chloro-4-fluoro-phenyl)-[(1S,5R)-8-[2-methyl-5-[(4-phenyl-1-piperidyl)sulfonyl]phenyl]-3,8-diazabicyclo[3.2.1]octan-3-yl]methanone], with < 1000 nM.
`COc1ccc(S(=O)(=O)NC(C)(C)C)cc1N1CCN(C(=O)c2ccc(F)cc2Cl)CC1C` (racemic) [compound 020, N-tert-butyl-4-methoxy-3-[rac-(2S)-4-(2-chloro-4-fluoro-benzoyl)-2-methyl-piperazin-1-yl]benzenesulfonamide] returned a concentration for a half-maximal effect (EC50) of 10000 to 50000 nM.
As for `COc1ccc(S(=O)(=O)N2CCN(CC(C)c3ccccc3)CC2)cc1N1C2CCC1CN(C(=O)c1ccc(F)cc1Cl)C2` (racemic) [compound 047, (2-chloro-4-fluoro-phenyl)-[(1S,5R)-8-[2-methoxy-5-[4-[(2RS)-2-phenylpropyl]piperazin-1-yl]sulfonyl-phenyl]-3,8-diazabicyclo[3.2.1]octan-3-yl]methanone], the EC50 was < 1000 nM.
Then `CN(C(C)(C)C)S(=O)(=O)c1cc(Cl)c(OCc2cccnc2)c(N2[C@@H]3CC[C@H]2CN(C(=O)c2ccc(F)cc2Cl)C3)c1` [compound 137], with < 1000 nM; and `CC(C)(C)NS(=O)(=O)c1cc(F)c(O)c(N2[C@@H]3CC[C@H]2CN(C(=O)c2ccc(F)cc2Cl)C3)c1` [compound 085, N-tert-butyl-3-[(1S,5R)-3-(2-chloro-4-fluoro-benzoyl)-3,8-diazabicyclo[3.2.1]octan-8-yl]-5-fluoro-4-hydroxy-benzenesulfonamide], with < 1000 nM.
Molecule `CCCN(C)S(=O)(=O)c1ccc(OC)c(N2CCN(C(=O)c3ccc(F)cc3C(F)(F)F)CC2COC)c1` (racemic) [compound 022, 4-methoxy-N-methyl-N-propyl-3-[rac-(2R)-4-[4-fluoro-2-(trifluoromethyl)benzoyl]-2-(methoxymethyl)piperazin-1-yl]benzenesulfonamide] had a 50% effective concentration (EC50) of 10000 to 50000 nM.
Turning to `C[C@H]1CN(C(=O)c2ccc(F)cc2Cl)CCN1c1cc(S(=O)(=O)NC(C)(C)C)cc(Cl)c1O` [compound 110, N-tert-butyl-3-chloro-5-[(2S)-4-(2-chloro-4-fluoro-benzoyl)-2-methyl-piperazin-1-yl]-4-hydroxy-benzenesulfonamide], the EC50 is < 1000 nM.
Then `CCCN(C)S(=O)(=O)c1ccc(OC2CCC2)c(N2[C@@H]3CC[C@H]2CN(C(=O)c2ccc(F)cc2Cl)C3)c1` [compound 030, 3-[(1S,5R)-3-(2-chloro-4-fluoro-benzoyl)-3,8-diazabicyclo[3.2.1]octan-8-yl]-4-(cyclobutoxy)-N-methyl-N-propyl-benzenesulfonamide], with 1000 to 10000 nM; and `O=C(c1ccc(F)cc1Cl)N1C[C@H]2CC[C@@H](C1)N2c1cc(S(=O)(=O)N2CCC(c3ccccc3)CC2)cc2c1OCCO2` [compound 118, (2-chloro-4-fluoro-phenyl)-[(1S,5R)-8-[7-[(4-phenyl-1-piperidyl)sulfonyl]-2,3-dihydro-1,4-benzodioxin-5-yl]-3,8-diazabicyclo[3.2.1]octan-3-yl]methanone], with < 1000 nM; and `COc1ccc(S(=O)(=O)N2C[C@H]3CCCC[C@H]3C2)cc1N1[C@@H]2CC[C@H]1CN(C(=O)c1ccc(F)cc1Cl)C2` [compound 015, [(1S,5R)-8-[5-[[(3aS,7aR)-1,3,3a,4,5,6,7,7a-octahydroisoindol-2-yl]sulfonyl]-2-methoxy-phenyl]-3,8-diazabicyclo[3.2.1]octan-3-yl]-(2-chloro-4-fluoro-phenyl)methanone], with < 1000 nM.
Then `O=C(c1ccc(F)cc1Cl)N1C[C@H]2CC[C@@H](C1)N2c1cc(S(=O)(=O)N2CCC(c3ccccc3)CC2)cc2c1OCC2` [compound 055, (2-chloro-4-fluoro-phenyl)-[(1S,5R)-8-[5-[(4-phenyl-1-piperidyl)sulfonyl]-2,3-dihydrobenzofuran-7-yl]-3,8-diazabicyclo[3.2.1]octan-3-yl]methanone], with < 1000 nM.
For the molecule `O=C(c1ccc(F)cc1Cl)N1C[C@H]2CC[C@@H](C1)N2c1cc(S(=O)(=O)N2CCC(c3ccccc3)CC2)cc(C(F)(F)F)c1O` [compound 087], the EC50 is < 1000 nM.
Then `CCN(CC)S(=O)(=O)c1cnc(OC)c(N2[C@@H]3CC[C@H]2CN(C(=O)c2ccc(F)cc2Cl)C3)c1` [compound 033, 5-[(1S,5R)-3-(2-chloro-4-fluoro-benzoyl)-3,8-diazabicyclo[3.2.1]octan-8-yl]-N,N-diethyl-6-methoxy-pyridine-3-sulfonamide], with 1000 to 10000 nM; and `CCCN(C)S(=O)(=O)c1ccc(OC)c(N2[C@@H]3COC[C@H]2CN(C(=O)c2ccc(F)cc2C(F)(F)F)C3)c1` [compound 023, 3-[(1S,5R)-7-[4-fluoro-2-(trifluoromethyl)benzoyl]-3-oxa-7,9-diazabicyclo[3.3.1]nonan-9-yl]-4-methoxy-N-methyl-N-propyl-benzenesulfonamide], with 10000 to 50000 nM.
The result for `COc1ccc(S(=O)(=O)N(C)CC2CC2)cc1N1[C@@H]2CC[C@H]1CN(C(=O)c1ccc(F)cc1Cl)C2` [compound 005, 3-[(1S,5R)-3-(2-chloro-4-fluoro-benzoyl)-3,8-diazabicyclo[3.2.1]octan-8-yl]-N-(cyclopropylmethyl)-4-methoxy-N-methyl-benzenesulfonamide] reads < 1000 nM; that for `CN(C)Cc1ccc(S(=O)(=O)N2CCC(c3ccccc3)CC2)cc1N1[C@@H]2CC[C@H]1CN(C(=O)c1ccc(F)cc1Cl)C2` [compound 073, (2-chloro-4-fluoro-phenyl)-[(1S,5R)-8-[2-[(dimethylamino)methyl]-5-[(4-phenyl-1-piperidyl)sulfonyl]phenyl]-3,8-diazabicyclo[3.2.1]octan-3-yl]methanone], 1000 to 10000 nM; that for `CCN(CC)S(=O)(=O)c1cnc(Cl)c(N2[C@@H]3CC[C@H]2CN(C(=O)c2ccc(F)cc2Cl)C3)c1` [compound 032, 6-chloro-5-[(1S,5R)-3-(2-chloro-4-fluoro-benzoyl)-3,8-diazabicyclo[3.2.1]octan-8-yl]-N,N-diethyl-pyridine-3-sulfonamide], 1000 to 10000 nM.
With `CCCN(C)S(=O)(=O)c1ccc(F)c(N2[C@@H]3CC[C@H]2CN(C(=O)c2ccc(F)cc2Cl)C3)c1` [compound 026], the EC50 fell in the range of 1000 to 10000 nM.

Usually EC50 stands for the concentration needed to bring the measured effect to its halfway point. Read a low EC50 as an effect from little substance.
